# Laboratory results as given in PubChem BioAssay (NCI).
#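 Tested at 5 concentrations; 48 h exposure; 96-well plates; endpoints linearly interpolated, else capped at highest concentration. Definition used: TGI = concentration required for complete inhibition of growth.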
# Tested on: 786-0 renal
# Assay: NCI anticancer screen, dose series, 48 h
row,Structure (SMILES),TGI
1,CC(=O)NC1C(OCc2ccccc2)OC(CO)C(O)C1OCC(=O)N[C@@H](C)C(=O)N[C@H](CCC(=O)NCCCNc1ccc([N+](=O)[O-])c2[nH]c3ccccc3c(=O)c12)C(N)=O (stereo partly specified),> 100 µM
2,CN(C)CCCNC(=O)c1cn2c(ccc3sc4ccccc4c(=O)c32)n1,8.08 µM
3,O=P(O)(O)CN1CCNCCN(CP(=O)(O)O)CC1,> 100 µM
4,c1cc2c(cc1C1=NCCN1)c1cc(C3=NCCN3)ccc1n2CC1CCCCC1,96.4 µM
5,C=C1CC2[C@H](C)C(=O)CCC2(C)C2=C1C1CCC(C(C)CCC(=C)C(C)C(=O)O)C1(C)CC2=O (stereo partly specified),40.1 µM
6,CC(C)NC(=O)OCc1c(COC(=O)NC(C)C)c(-c2cc[n+](COC(=O)C3CCCCC3)cc2)n2c1CCC2,> 100 µM
7,O=[N+]([O-])C(C=C(n1nnc2ccccc21)n1nnc2ccccc21)=C(n1nnc2ccccc21)n1nnc2ccccc21,> 100 µM

# Tested on: SK-MEL-28 melanoma
# Assay: NCI anticancer screen, dose series, 48 h
row,Structure (SMILES),TGI
1,CCNC(=S)N/N=C(\C)c1cccc(C)n1,> 100 µM
2,CN1CCN([C@H]2C[C@H]3[C@@H]4CC=C5C[C@@H](O)CC[C@]5(C)[C@H]4CC[C@]3(C)[C@H]2O)CC1,> 57.3 µM
3,CC1C2(C)OCC(C#N)(C(=N)O2)C1(C#N)C#N (stereo unspecified),97.6 µM
4,C=CC[C@H](N=C(SC)SC)C(=O)N1C(=O)N(C)[C@@H](C)[C@H]1c1ccccc1,> 100 µM
5,CC(=O)c1sc2[n+](c1C)C(=O)/C(=C\c1ccccc1Cl)S2,31.1 µM
6,CCCCCCCCCCCCOP(=O)(O)OP(=O)(O)OCC1OC(n2cc(C)c(=O)[nH]c2=O)CC1O (stereo unspecified),> 100 µM
7,O=C1c2cc([N+](=O)[O-])sc2C(=O)c2c([N+](=O)[O-])csc21,1.92 µM
8,C[C@H](CCC(=O)NCC(=O)O)[C@H]1CC[C@H]2[C@@H]3[C@H](O)C[C@@H]4C[C@H](O)CC[C@]4(C)[C@H]3CC[C@]12C,> 100 µM
9,CCOc1cc2c(cc1O)C(N)C[C@@H]1[C@@H]2CC[C@]2(C)[C@@H](O)CC[C@@H]12 (stereo partly specified),> 100 µM
10,CC(C)C(NC(=O)C(Cc1ccccc1)NC(=O)[C@H]1CCC[C@H]1NC(=O)C(Cc1ccc(OC(C)(C)C)cc1)NC(=O)OC(C)(C)C)C(N)=O (stereo partly specified),40 µM
11,Cc1ccc(NC(=O)CC(=O)n2nc(C)c(N=Nc3cccc(C)c3)c2C)cc1,> 100 µM
12,N#C/C(=C\c1ccc2[nH]ccc2c1)C(=O)c1ccc(O)c(O)c1,> 100 µM
13,O=[N+]([O-])/C(C(Cl)=C(Cl)Cl)=C(/Nc1ccccc1)Sc1ccccc1,36 µM
14,Cc1ccc2c(c1C)C(=O)/C(=C/c1cccc(C)c1C(=O)O)C2,> 100 µM
15,O=C1N(c2ccccc2)C(=S)/C(=C/c2ccc(Cl)cc2)N1c1ccc(Cl)cc1,> 100 µM
16,O=C1C=C(N2CCN(CCOCCO)CC2)C(=O)c2c(O)ccc(O)c21,32.7 µM
17,CC/C(N)=N\NC(=O)OC(C)(C)C,> 100 µM
18,CC(=O)NC1C(OCc2ccccc2)OC(CO)C(O)C1OCC(=O)N[C@@H](C)C(=O)N[C@H](CCC(=O)NCCCNc1ccc([N+](=O)[O-])c2[nH]c3ccccc3c(=O)c12)C(N)=O (stereo partly specified),> 100 µM
19,CN(C)CCCNC(=O)c1cn2c(ccc3sc4ccccc4c(=O)c32)n1,19.6 µM
20,O=P(O)(O)CN1CCNCCN(CP(=O)(O)O)CC1,> 100 µM
21,c1cc2c(cc1C1=NCCN1)c1cc(C3=NCCN3)ccc1n2CC1CCCCC1,26.7 µM
22,C=C1CC2[C@H](C)C(=O)CCC2(C)C2=C1C1CCC(C(C)CCC(=C)C(C)C(=O)O)C1(C)CC2=O (stereo partly specified),> 100 µM
23,CC(C)NC(=O)OCc1c(COC(=O)NC(C)C)c(-c2cc[n+](COC(=O)C3CCCCC3)cc2)n2c1CCC2,> 100 µM

# Tested on: MOLT-4 leukemia
# Assay: NCI anticancer screen, dose series, 48 h
row,Structure (SMILES),TGI
1,CCNC(=S)N/N=C(\C)c1cccc(C)n1,> 100 µM
2,CN1CCN([C@H]2C[C@H]3[C@@H]4CC=C5C[C@@H](O)CC[C@]5(C)[C@H]4CC[C@]3(C)[C@H]2O)CC1,> 82.5 µM
3,CC1C2(C)OCC(C#N)(C(=N)O2)C1(C#N)C#N (stereo unspecified),> 100 µM
4,C=CC[C@H](N=C(SC)SC)C(=O)N1C(=O)N(C)[C@@H](C)[C@H]1c1ccccc1,> 100 µM
5,CC(=O)c1sc2[n+](c1C)C(=O)/C(=C\c1ccccc1Cl)S2,> 100 µM
6,CCCCCCCCCCCCOP(=O)(O)OP(=O)(O)OCC1OC(n2cc(C)c(=O)[nH]c2=O)CC1O (stereo unspecified),> 100 µM
7,O=C1c2cc([N+](=O)[O-])sc2C(=O)c2c([N+](=O)[O-])csc21,0.484 µM
8,C[C@H](CCC(=O)NCC(=O)O)[C@H]1CC[C@H]2[C@@H]3[C@H](O)C[C@@H]4C[C@H](O)CC[C@]4(C)[C@H]3CC[C@]12C,> 100 µM
9,CCOc1cc2c(cc1O)C(N)C[C@@H]1[C@@H]2CC[C@]2(C)[C@@H](O)CC[C@@H]12 (stereo partly specified),> 100 µM
10,CC(C)C(NC(=O)C(Cc1ccccc1)NC(=O)[C@H]1CCC[C@H]1NC(=O)C(Cc1ccc(OC(C)(C)C)cc1)NC(=O)OC(C)(C)C)C(N)=O (stereo partly specified),46.5 µM
11,Cc1ccc(NC(=O)CC(=O)n2nc(C)c(N=Nc3cccc(C)c3)c2C)cc1,> 100 µM
12,N#C/C(=C\c1ccc2[nH]ccc2c1)C(=O)c1ccc(O)c(O)c1,> 100 µM
13,O=[N+]([O-])/C(C(Cl)=C(Cl)Cl)=C(/Nc1ccccc1)Sc1ccccc1,46.7 µM
14,Cc1ccc2c(c1C)C(=O)/C(=C/c1cccc(C)c1C(=O)O)C2,> 100 µM
15,O=C1N(c2ccccc2)C(=S)/C(=C/c2ccc(Cl)cc2)N1c1ccc(Cl)cc1,13.5 µM
16,CC/C(N)=N\NC(=O)OC(C)(C)C,> 100 µM
17,O=P(O)(O)CN1CCNCCN(CP(=O)(O)O)CC1,> 100 µM
18,c1cc2c(cc1C1=NCCN1)c1cc(C3=NCCN3)ccc1n2CC1CCCCC1,34.8 µM
19,C=C1CC2[C@H](C)C(=O)CCC2(C)C2=C1C1CCC(C(C)CCC(=C)C(C)C(=O)O)C1(C)CC2=O (stereo partly specified),63.1 µM
20,CC(C)NC(=O)OCc1c(COC(=O)NC(C)C)c(-c2cc[n+](COC(=O)C3CCCCC3)cc2)n2c1CCC2,> 100 µM
21,O=[N+]([O-])C(C=C(n1nnc2ccccc21)n1nnc2ccccc21)=C(n1nnc2ccccc21)n1nnc2ccccc21,93.4 µM

# Tested on: RXF 393 renal
# Assay: NCI anticancer screen, dose series, 48 h
row,Structure (SMILES),TGI
1,CCNC(=S)N/N=C(\C)c1cccc(C)n1,> 100 µM
2,CN1CCN([C@H]2C[C@H]3[C@@H]4CC=C5C[C@@H](O)CC[C@]5(C)[C@H]4CC[C@]3(C)[C@H]2O)CC1,51.9 µM
3,CC1C2(C)OCC(C#N)(C(=N)O2)C1(C#N)C#N (stereo unspecified),65.7 µM
4,C=CC[C@H](N=C(SC)SC)C(=O)N1C(=O)N(C)[C@@H](C)[C@H]1c1ccccc1,> 100 µM
5,CC(=O)c1sc2[n+](c1C)C(=O)/C(=C\c1ccccc1Cl)S2,47.4 µM
